The target of experiment [1] is Replicase polyprotein 1a (Severe acute respiratory syndrome-related coronavirus) (UniProt P0C6U8). Briefly: Half life period against SARS-CoV 3CLpro protease.
The target of a further experiment is Replicase polyprotein 1a (Severe acute respiratory syndrome-related coronavirus, UniProt P0C6U8). In words: Inhibitory concentration required for antiviral activity against SARS-CoV 3CLpro protease.
Experiment [2] concerns the target Replicase polyprotein 1a (Severe acute respiratory syndrome-related coronavirus) (UniProt P0C6U8). In words: Inactivation rate constant against SARS-CoV 3CLpro protease.
For experiment [3] the target is unchanged.

Each structure is given as a SMILES string.

Take `CCOC(=O)/C=C/[C@H](C[C@@H]1CCNC1=O)NC(=O)[C@@H](CC(=O)[C@@H](NC(=O)c1cc(C)on1)C(C)C)Cc1ccccc1`: the T1/2 in experiment [1] turned out to be 0.817 h. The compound further had an IC50 on Replicase polyprotein 1a of 45 µM. The kinact in experiment [2] worked out at 0.014 min⁻¹.
The compound `CCOC(=O)/C=C/[C@H](C[C@@H]1CCNC1=O)NC(=O)[C@H](Cc1ccccc1)CC(O)[C@@H](NC(=O)c1cc(C)on1)C(C)C` (some centres undefined) yielded a T1/2 in experiment [1] of 4.62 h. The kinact in experiment [2] was 0.0025 min⁻¹.
Turning to `CCOC(=O)/C=C/[C@H](C[C@@H]1CCNC1=O)NC(=O)[C@H](CC=C(C)C)CC(=O)[C@@H](NC(=O)c1cc(C)on1)C(C)C`, the kinact in experiment [3] was 0.045 min⁻¹. The compound also gave a T1/2 in experiment [1] of 0.25 h.
Turning to `CC(C)C[C@H](NC(=O)[C@@H](O)C(S)C(=O)O)C(=O)NCCCCN=C(N)N` (some centres undefined), the T1/2 in experiment [1] was found to be 5.25 h. Further, the kinact in experiment [2] stood at 0.0022 min⁻¹.
